Measurements from US20230263817A1, “HIGH DOSE NICOTINAMIDE ADENINE DINUCLEOTIDE (NAD) PRECURSOR REGIMENS FOR REDUCTION OF INFLAMMATION IN HUMAN PATIENTS WITH PREEXISTING INFLAMMATION” (University of Washington, priority 2021, published 2023).

Key:
[1] = tested on: PBMCs of heart failure patients; assay: Seahorse OCR of HF PBMCs after 4-hour in vitro NR treatment; format: cell-based, human; settings: HF PBMC, 4-hour 1 mM NR vs vehicle
Procedure: PBMC and Monocyte isolation. 30-60 ml of fasting blood was collected into EDTA-containing Vacutainers (BD Mfr #364606). Blood then was diluted (1:1) with RPMI medium (Corning; Cat #17-105-CV) and applied to Histopaque gradient medium (Sigma-Aldrich; Cat #10771) using SepMate-50 (STEMCELL Technologies), and centrifuged at 1200 g for 10 minutes. Top layer contained the enriched peripheral blood mononuclear cells (PBMCs) which were collected and followed by centrifugation at 300 g for 10 minutes. The pellet was resuspended with ACK lysis buffer (Gibco; Cat. A1049201) and incubated at room temperature for 5 minutes to remove residual red blood cells. Next, the enriched PBMCs were washed twice with RPMI medium. All PBMC samples were subjected to the baseline Seahorse Mito Stress Test. When available, the remaining cells were used for cytokine mRNA quantitative PCR and in vitro assays. For monocyte isolation, a magnetic bead-based negative-selection monocyte isolation kit (Miltenyi Biotec, 130-096-537) was used per the manufacturer's instructions. […]
Seahorse Mito Stress Test. Oxygen consumption rate (OCR) of freshly isolated PBMCs was assessed using a Seahorse XFe24 analyzer (Agilent Technologies). […]

healthy PBMCs = assay: Seahorse Mito Stress Test (OCR) of healthy PBMCs after 4-hour in vitro treatment; format: cell-based, human
Procedure: PBMC and Monocyte isolation. 30-60 ml of fasting blood was collected into EDTA-containing Vacutainers (BD Mfr #364606). Blood then was diluted (1:1) with RPMI medium (Corning; Cat #17-105-CV) and applied to Histopaque gradient medium (Sigma-Aldrich; Cat #10771) using SepMate-50 (STEMCELL Technologies), and centrifuged at 1200 g for 10 minutes. Top layer contained the enriched peripheral blood mononuclear cells (PBMCs) which were collected and followed by centrifugation at 300 g for 10 minutes. The pellet was resuspended with ACK lysis buffer (Gibco; Cat. A1049201) and incubated at room temperature for 5 minutes to remove residual red blood cells. Next, the enriched PBMCs were washed twice with RPMI medium. All PBMC samples were subjected to the baseline Seahorse Mito Stress Test. When available, the remaining cells were used for cytokine mRNA quantitative PCR and in vitro assays. For monocyte isolation, a magnetic bead-based negative-selection monocyte isolation kit (Miltenyi Biotec, 130-096-537) was used per the manufacturer's instructions. Briefly, antibody-conjugated magnetic bead solution was added to isolated PBMCs resuspended in RPMI containing 0.5% BSA and incubated for 20 minutes at 4° C., followed by magnetic column binding and elution. The procedure was repeated once to improve the purity of monocytes. The monocytes were washed once with RPMI prior to subsequent experiments.
Seahorse Mito Stress Test. Oxygen consumption rate (OCR) of freshly isolated PBMCs was assessed using a Seahorse XFe24 analyzer (Agilent Technologies). Briefly, purified PBMCs were resuspended in Seahorse base medium (Agilent Technologies, supplemented with 1 mM pyruvate, 2 mM glutamine, and 10 mM glucose, pH 7.4), and added 10^6 cells/well at equal volume of 500 μL in a Seahorse 24-well plate. The cells were maintained in a non-CO2 incubator and allowed to settle for 30 minutes at 37° C. Next, the plate was centrifuged at 40 g for 10 minutes at room temperature without application of the brake to help cells attach to the bottom of the plate. Drugs used in the assay: 5 μM oligomycin A (Sigma-Aldrich; Cat. 75351), 3 μM Trifluoromethoxy carbonylcyanide phenylhydrazone (FCCP) (Sigma-Aldrich; Cat. C2920), 1 μM Rotenone (Sigma-Aldrich; Cat. […]), 1 μM Antimycin A (Sigma-Aldrich; Cat. […]), 0.5 mM TMPD (Sigma-Aldrich; Cat. T7394) and 10 mM Ascorbate (Sigma-Aldrich; Cat. 95209).
PBMC and Monocyte Culture. Freshly isolated PBMCs or Monocytes from healthy or HF subjects were resuspended with RPMI medium plus 10% heat inactivated FBS. PBMCs (10^6 cells/well) were seeded in Seahorse 24-well plates and incubated at 37° C. in CO2 incubator with various proinflammatory triggers (Vehicle, MitoDAMP, LPS) and compounds (NR, MCC 950, MitoTempo, or LMT-28). After 4 hours incubation, the plate was centrifuged at 40 g for 10 minutes at room temperature without application of the brake to help cells attach to the bottom of the plate. The cells were washed twice and then brought up to 500 μL using Seahorse base medium (Agilent Technologies, supplemented with 1 mM pyruvate, 2 mM glutamine, and 10 mM glucose, pH 7.4).

[2] = Randomized trial of NR in HFrEF: exploratory endpoints (6MWD, MLHFQ, echocardiography); format: in vivo, human; settings: Week 12 vs baseline; study not powered
Procedure: Peripheral Blood Mononuclear Cell (PBMC) Mitochondrial Function. PBMCs were isolated from freshly-collected whole blood by centrifugation in Sepmate™-50 PBMC isolation tubes (STEMCELL Technologies, Vancouver, BC, Canada; Cat. 85450). Isolated PBMCs were resuspended in Seahorse XF® medium (Agilent, Cat. 102353-100) and then plated (10^6 cells/well) onto Seahorse® (Agilent) 24-well plates. PBMC mitochondrial respiratory function was assessed by measuring the oxygen consumption rate (OCR) at baseline and maximal stimulated conditions as described in Zhou B, et al. (J Clin Invest. 2020, 130:6054-6063 (Experimental Example 1)). Exploratory Endpoints. The following endpoints were considered exploratory, as the Study was underpowered to detect differences.
Six minute walk distance (6MWD). Any potential “training” effect (Laboratories ATSCoPSfCPF. ATS statement: guidelines for the six-minute walk test. Am J Respir Crit Care Med. 2002, 166:111-7) for 6MWD results was mitigated by performing a “training” test at the Screening Visit, while the second test, performed at the Randomization Visit was considered the Baseline test.
Echocardiography. Serial echocardiograms were performed using a standardized data collection protocol determined using the TOMTEC Arena Image-Com (TOMTEC Imaging Systems, Unterschleissheim, Germany). All echocardiograms were interpreted by a single observer, blinded to participant clinical data, randomized treatment assignment and echocardiogram temporal sequence. For evaluation of left ventricular systolic function by 2-dimensional (2-D), transthoracic echocardiography, 28 study pairs (NR=18, placebo=10) had evaluable data. For evaluation of left ventricular diastolic function by […] (E/e′), 24 study pairs (NR=17, placebo=7) had evaluable data.
Minnesota Living with Heart Failure Questionnaire (MLHFQ). The MLHFQ was administered to Study participants at the Screening and Randomization visits, as well as at Study visits at Weeks 2, 3, 4, 8 and 12.

[3] = healthy PBMC, 4-hour 1 mM NR vs vehicle, absence of MitoDAMP

In the case of `NC(=O)c1ccc[n+]([C@@H]2O[C@H](CO)[C@@H](O)[C@H]2O)c1` [NR, nicotinamide riboside], the “basal OCR” value [1] is reported as “increased”, the “maximal OCR” value [1] is reported as “increased” and the “basal OCR” value (healthy PBMCs; [3]) is reported as “increased”. For the same molecule, the “maximal OCR” value (healthy PBMCs; [3]) was “increased”, the “MitoDAMP-induced decline of maximal OCR” value (healthy PBMCs; healthy PBMC, 4-hour MitoDAMP with 1 mM NR) was “partially prevented” and the “maximal OCR” value (healthy PBMCs; healthy PBMCs, 4-hour 10 ng/mL LPS with 1 mM NR) was “enhancing”. The “functional capacity, 6-minute walk test distance, NR vs placebo” value [2] was “No on-trial differences between groups”, the “left ventricular diastolic function (E/e′), NR vs placebo” value [2] was “No on-trial differences between groups” and the “left ventricular systolic function, 2D-LVEF, NR vs placebo” value [2] was “No on-trial differences between groups”. For the same molecule, the “quality of life, MLHFQ score, NR vs placebo” value [2] was “No on-trial differences between groups”.
